Laboratory results taken from ChEMBL document CHEMBL3817831, “Ionophoric polyphenols selectively bind Cu(2+), display potent antioxidant and anti-amyloidogenic properties, and are non-toxic toward Tetrahymena thermophila” (Bioorg Med Chem, 2016).
Calls of active or inactive are those of the source. The calls are words filed in the database; no cut-off is given here.

Tests used:
[1] = Binding affinity to Zn2+ using ZnCl2 at 20 uM after 5 mins by spectrophotometry
[2] = Binding affinity to Fe2+ using FeCl2 at 20 uM after 5 mins by spectrophotometry
[3] = Binding affinity to Ca2+ using CaCl2 at 20 uM after 5 mins by spectrophotometry
[4] = Binding affinity to Mn2+ using MnCl2 at 20 uM after 5 mins by spectrophotometry
[5] = Binding affinity to Mg2+ using MgSO4 at 20 uM after 5 mins by spectrophotometry
[6] = Binding affinity to Cu2+ using CuCl2 at 20 uM after 5 mins by spectrophotometric titration assay
[7] = biological target: Amyloid-beta precursor protein (Homo sapiens) (UniProt P05067); experiment: Binding affinity to amyloid beta (1 to 40) (unknown origin) by tyrosine fluorimetric titration assay
Chain of Amyloid-beta precursor protein (Homo sapiens) (P05067 whole entry): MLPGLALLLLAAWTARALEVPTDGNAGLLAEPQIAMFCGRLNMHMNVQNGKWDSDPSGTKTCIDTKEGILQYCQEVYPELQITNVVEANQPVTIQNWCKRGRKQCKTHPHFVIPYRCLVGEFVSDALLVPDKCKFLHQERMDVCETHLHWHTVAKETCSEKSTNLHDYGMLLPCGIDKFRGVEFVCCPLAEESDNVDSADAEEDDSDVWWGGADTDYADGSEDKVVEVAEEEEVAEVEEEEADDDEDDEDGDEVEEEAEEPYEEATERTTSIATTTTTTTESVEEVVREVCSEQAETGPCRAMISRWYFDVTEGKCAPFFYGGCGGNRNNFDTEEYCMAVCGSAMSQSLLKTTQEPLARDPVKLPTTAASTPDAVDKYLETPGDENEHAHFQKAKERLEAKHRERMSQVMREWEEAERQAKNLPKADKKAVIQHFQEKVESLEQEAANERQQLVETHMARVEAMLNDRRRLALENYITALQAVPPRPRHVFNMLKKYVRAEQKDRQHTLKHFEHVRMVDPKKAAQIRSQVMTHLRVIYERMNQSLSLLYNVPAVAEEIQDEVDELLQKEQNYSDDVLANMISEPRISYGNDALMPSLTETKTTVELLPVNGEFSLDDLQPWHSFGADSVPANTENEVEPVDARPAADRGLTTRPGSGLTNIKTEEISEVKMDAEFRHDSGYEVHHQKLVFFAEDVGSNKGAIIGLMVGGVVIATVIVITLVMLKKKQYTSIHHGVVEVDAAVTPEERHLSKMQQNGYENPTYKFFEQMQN

[8] = Inhibition of Cu2+-amyloid beta (1 to 40) catalyzed generation of hydroxyl radical assessed as 7-hrdroxy-CCA formation at 2 equiv preincubated for 1 hr followed by CCA addition measured over 60 mins by fluorescence assay
[9] = Inhibition of Cu2+-amyloid beta (1 to 40) catalyzed generation of hydroxyl radical assessed as rate of radical formation per min at 2 equiv preincubated for 1 hr followed by CCA addition measured over 60 mins by CCA based fluorescence assay (reference value: 13 +/- 0.2 a.u.)
[10] = Antioxidant activity assessed as DPPH free radical scavenging activity after 30 mins by spectrophotometry; type: physicochemical
[11] = Ratio of resveratrol IC50 to compound IC50 for DPPH free radical scavenging activity
[12] = Antioxidant activity assessed as AAPH radical scavenging activity preincubated for 30 mins followed by AAPH addition measured after 60 mins by ORAC assay; type: physicochemical
[13] = Ratio of resveratrol IC50 to compound IC50 for AAPH radical scavenging activity
[14] = Inhibition of Cu2+-induced amyloid beta (1 to 40) aggregation at 100 uM preincubated for 5 mins followed by amyloid beta (1 to 40) addition measured after 18 days at pH 6.60 by thioflavin-T fluorescence assay
[15] = Inhibition of Cu2+-induced amyloid beta (1 to 40) fibril aggregation assessed as remaining fibril aggregates at 100 uM preincubated for 5 mins followed by amyloid beta (1 to 40) addition measured after 3 days at pH 6.60 by thioflavin-T fluorescence assay
[16] = Inhibition of Cu2+-induced amyloid beta (1 to 40) fibril aggregation assessed as remaining fibril aggregates at 100 uM preincubated for 5 mins followed by amyloid beta (1 to 40) addition measured after 7 days at pH 6.60 by thioflavin-T fluorescence assay
[17] = biological target: Amyloid-beta precursor protein (Homo sapiens) (UniProt P05067); experiment: Inhibition of self-induced amyloid beta (1 to 40) (unknown origin) fibril aggregation assessed as remaining fibril aggregates at 100 uM after 3 days at pH 6.60 by thioflavin-T fluorescence assay
[18] = biological target: Amyloid-beta precursor protein (Homo sapiens) (UniProt P05067); experiment: Inhibition of self-induced amyloid beta (1 to 40) (unknown origin) fibril aggregation assessed as remaining fibril aggregates at 100 uM after 7 days at pH 6.60 by thioflavin-T fluorescence assay
[19] = Inhibition of preformed Cu2+-induced amyloid beta (1 to 40) fibril aggregation assessed as remaining fibril aggregates at 100 uM after 4 days at pH 6.60 by thioflavin-T fluorescence assay
[20] = Inhibition of preformed Cu2+-induced amyloid beta (1 to 40) fibril aggregation assessed as remaining fibril aggregates at 100 uM after 12 days at pH 6.60 by thioflavin-T fluorescence assay
[21] = biological target: Amyloid-beta precursor protein (Homo sapiens) (UniProt P05067); experiment: Inhibition of preformed self-induced amyloid beta (1 to 40) (unknown origin) fibril aggregation assessed as remaining fibril aggregates at 100 uM after 4 days at pH 6.60 by thioflavin-T fluorescence assay
[22] = biological target: Amyloid-beta precursor protein (Homo sapiens) (UniProt P05067); experiment: Inhibition of preformed self-induced amyloid beta (1 to 40) (unknown origin) fibril aggregation assessed as remaining fibril aggregates at 100 uM after 12 days at pH 6.60 by thioflavin-T fluorescence assay
[23] = Induction of Cu2+-induced amyloid beta (1 to 40) fibril aggregation at 100 uM preincubated for 5 mins followed by amyloid beta (1 to 40) addition measured after 3 to 7 days by turbidity assay
[24] = Toxicity in Tetrahymena thermophila assessed as reduction in cell viability after 48 hrs by MTT assay; type: organism-based; details: Tetrahymena thermophila cells, read-out: LD50
[25] = Binding affinity to Cu2+ using CuCl2 after 5 mins by spectrophotometry
[26] = Ratio of ascorbic acid IC50 to compound IC50 for DPPH free radical scavenging activity
[27] = Inhibition of Cu2+-induced amyloid beta (1 to 40) fibril aggregation at 100 uM preincubated for 5 mins followed by amyloid beta (1 to 40) addition measured after 18 days by turbidity assay
[28] = biological target: Amyloid-beta precursor protein (Homo sapiens) (UniProt P05067); experiment: Induction of self-induced amyloid beta (1 to 40) (unknown origin) fibril aggregation at 100 uM after 3 days by turbidity assay
[29] = biological target: Amyloid-beta precursor protein (Homo sapiens) (UniProt P05067); experiment: Inhibition of self-induced amyloid beta (1 to 40) (unknown origin) fibril aggregation at 100 uM after 7 to 18 days by turbidity assay
[30] = Inhibition of preformed Cu2+-induced amyloid beta (1 to 40) fibril aggregation at 100 uM after 4 to 12 days by turbidity assay relative to control
[31] = biological target: Amyloid-beta precursor protein (Homo sapiens) (UniProt P05067); experiment: Induction of preformed self-induced amyloid beta (1 to 40) (unknown origin) fibril aggregation at 100 uM after 4 days by turbidity assay
[32] = biological target: Amyloid-beta precursor protein (Homo sapiens) (UniProt P05067); experiment: Inhibition of preformed self-induced amyloid beta (1 to 40) (unknown origin) fibril aggregation at 100 uM after 12 days by turbidity assay relative to control
[33] = Induction of preformed Cu2+-induced amyloid beta (1 to 40) fibril aggregation at 100 uM after 4 to 12 days by turbidity assay relative to control

Row | Compound | Activity [1] | Activity [2] | Activity [3] | Activity [4] | Activity [5] | Activity [6] | Ka [7] [×10⁵ /M] | inhibition [8] [%] | Activity [9] [a.u.] | IC50 [10] [µM] | Ratio IC50 [11] | IC50 [12] [µM] | Ratio IC50 [13] | inhibition [14] | Activity [15] [%] | Activity [16] [%] | Activity [17] [%] | Activity [18] [%] | Activity [19] [%] | Activity [20] [%] | also measured
1 | Oc1cccc(CNc2ccccc2O)c1 | inactive | inactive | inactive | inactive | inactive | Active | 1.55 | 51.1 | 5.4 | 5.87 | 3 | 1.24 | 1.4 | Active | 45 | 17.2 | 8.2 | 6.65 | 144 | 117 | Activity [21]: 11.7%; Activity [22]: 20.3%; Activity [23]: 47%; LC50 at 48 h [24]: 180 µM; logKa [25]: 13.1; Ratio IC50 [26]: 2; inhibition [27]: Active; Activity [28]: Active; inhibition [29]: Active; inhibition [30]: Active; Activity [31]: Active; inhibition [32]: 46%
2 | Oc1ccc(CNc2ccccc2O)cc1 | inactive | inactive | inactive | inactive | inactive | Active | 3.27 | 47.3 | 6.8 | 6.27 | 2.8 | 1.38 | 1.2 | Active | 21.8 | 11 | 4.34 | 3.7 | 152 | 106 | Activity [21]: 8.37%; Activity [22]: 10.1%; Activity [23]: 47%; LC50 at 48 h [24]: 211 µM; logKa [25]: 12.8; Ratio IC50 [26]: 2; inhibition [27]: Active; Activity [28]: Active; inhibition [29]: Active; inhibition [30]: Active; Activity [31]: Active; inhibition [32]: Active
3 | Oc1ccc(CNc2ccccc2O)cc1O | inactive | inactive | inactive | inactive | inactive | Active | 3.55 | 59.9 | 4 | 3.05 | 5.8 | 0.61 | 2.8 | Active | 19.5 | 12.1 | 9.17 | 7.49 | 76.5 | 69.7 | Activity [33]: Active; Activity [21]: 12.8%; Activity [22]: 9.28%; Activity [23]: 47%; LC50 at 48 h [24]: 354 µM; logKa [25]: 12.6; Ratio IC50 [26]: 2; inhibition [27]: Active; Activity [28]: Active; inhibition [29]: Active; Activity [31]: Active; inhibition [32]: Active
4 | O=C1O[C@H]([C@@H](O)CO)C(O)=C1O [ASCORBIC ACID] | – | – | – | – | – | – | – | – | – | 12.8 | 1.4 | 62.2 | 0.02 | – | – | – | – | – | – | – | –
